According to PubChem BioAssay AID2060501 (Molecular Pharmacology Branch, DTP, NCI, 2025):
pIC50: −log10 of the molar value. Values belong to the molecule of their own block, whether it stands above or below them.

Test system: 282377-053-R-J1-PDC complex spheroids, viability
Test: Anticancer human tumor 282377-053-R-J1-PDC patient-derived colon adenocarcinoma cell line growth inhibition [GQUAD]
Settings: for pIC50: curve of first compound; for viability, T/C: stronger effect = lower value
How it was run: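 Tumor cells were grown as complex spheroids with HUVEC endothelial cells and mesenchymal stem cells as stroma. G-quadruplex stabilizers were combined with targeted agents over half-log dilutions from near the clinical Cmax, or from 10 microM.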

[1] = second compound 0.0316 µM, first compound 0.0316 µM
[2] = second compound 0.0316 µM, first compound 0.1 µM
[3] = second compound 0.0316 µM, first compound 0.316 µM
[4] = second compound 0.0316 µM, first compound 1 µM
[5] = second compound 0.0316 µM, first compound 3.16 µM
[6] = second compound 0.0316 µM, first compound 10 µM
[7] = second compound 0.1 µM, first compound 0.0316 µM
[8] = second compound 0.1 µM, first compound 0.1 µM
[9] = second compound 0.1 µM, first compound 0.316 µM
[10] = second compound 0.1 µM, first compound 1 µM
[11] = second compound 0.1 µM, first compound 3.16 µM
[12] = second compound 0.1 µM, first compound 10 µM
[13] = second compound 0.316 µM, first compound 0.0316 µM
[14] = second compound 0.316 µM, first compound 0.1 µM
[15] = second compound 0.316 µM, first compound 0.316 µM
[16] = second compound 0.316 µM, first compound 1 µM
[17] = second compound 0.316 µM, first compound 3.16 µM
[18] = second compound 0.316 µM, first compound 10 µM
[19] = second compound 1 µM, first compound 0.0316 µM
[20] = second compound 1 µM, first compound 0.1 µM
[21] = second compound 1 µM, first compound 0.316 µM
[22] = second compound 1 µM, first compound 1 µM
[23] = second compound 1 µM, first compound 3.16 µM
[24] = second compound 1 µM, first compound 10 µM
[25] = second compound 3.16 µM, first compound 0.0316 µM
[26] = second compound 3.16 µM, first compound 0.1 µM
[27] = second compound 3.16 µM, first compound 0.316 µM
[28] = second compound 3.16 µM, first compound 1 µM
[29] = second compound 3.16 µM, first compound 3.16 µM
[30] = second compound 3.16 µM, first compound 10 µM
[31] = second compound 10 µM, first compound 0.0316 µM
[32] = second compound 10 µM, first compound 0.1 µM
[33] = second compound 10 µM, first compound 0.316 µM
[34] = second compound 10 µM, first compound 1 µM
[35] = second compound 10 µM, first compound 3.16 µM
[36] = second compound 10 µM, first compound 10 µM
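Note: spheroids exposed to compounds for 7 days before readout.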
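Throughout, for viability, T/C: percent of vehicle DMSO control viability with 100% = untreated-like growth.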

- pIC50 (second compound 0.0316 µM): < 5.00
- pIC50 (second compound 0.1 µM): < 5.00
- pIC50 (second compound 0.316 µM): < 5.00
- pIC50 (second compound 1 µM): < 5.00
- pIC50 (second compound 3.16 µM): 5.38
- pIC50 (second compound 10 µM): > 7.50
SMILES: C#Cc1c(F)ccc2cc(O)cc(-c3ncc4c(N5CC6CCC(C5)N6)nc(OCC56CCCN5CC(F)C6)nc4c3F)c12 (stereo unspecified) + Cc1cnc(CNC(=O)c2c(=O)c3ccc(N4CCCN(C)CC4)nc3n3c2sc2ccccc23)cn1
- viability, T/C [1]: 102%
- viability, T/C [2]: 87.4%
- viability, T/C [3]: 122%
- viability, T/C [4]: 83.2%
- viability, T/C [5]: 100%
- viability, T/C [6]: 94.7%
- viability, T/C [7]: 127%
- viability, T/C [8]: 109%
- viability, T/C [9]: 89.9%
- viability, T/C [10]: 86%
- viability, T/C [11]: 120%
- viability, T/C [12]: 93.5%
- viability, T/C [13]: 86.5%
- viability, T/C [14]: 102%
- viability, T/C [15]: 85.5%
- viability, T/C [16]: 77.1%
- viability, T/C [17]: 91.3%
- viability, T/C [18]: 83.9%
- viability, T/C [19]: 64.3%
- viability, T/C [20]: 47.6%
- viability, T/C [21]: 47.2%
- viability, T/C [22]: 59.2%
- viability, T/C [23]: 71.8%
- viability, T/C [24]: 58.5%
- viability, T/C [25]: 46.5%
- viability, T/C [26]: 53%
- viability, T/C [27]: 58.5%
- viability, T/C [28]: 52.2%
- viability, T/C [29]: 51.7%
- viability, T/C [30]: 44.1%
- viability, T/C [31]: 36.8%
- viability, T/C [32]: 40.3%
- viability, T/C [33]: 52.9%
- viability, T/C [34]: 46%
- viability, T/C [35]: 45.7%
- viability, T/C [36]: 37.8%

- pIC50 (second compound 0.0316 µM): > 7.50
- pIC50 (second compound 0.1 µM): > 7.50
- pIC50 (second compound 0.316 µM): > 7.50
- pIC50 (second compound 1 µM): > 7.50
- pIC50 (second compound 3.16 µM): > 7.50
- pIC50 (second compound 10 µM): > 7.50
SMILES: CC(=O)O[C@H]1C(=O)[C@@]2(C)[C@H]([C@H](OC(=O)c3ccccc3)[C@]3(O)C[C@H](OC(=O)[C@H](O)[C@@H](NC(=O)c4ccccc4)c4ccccc4)C(C)=C1C3(C)C)[C@]1(OC(C)=O)CO[C@@H]1C[C@@H]2O + Cc1cnc(CNC(=O)c2c(=O)c3ccc(N4CCCN(C)CC4)nc3n3c2sc2ccccc23)cn1
- viability, T/C [1]: 42.7%
- viability, T/C [2]: 17.2%
- viability, T/C [3]: 21.4%
- viability, T/C [4]: 18.4%
- viability, T/C [5]: 20.4%
- viability, T/C [6]: 24.9%
- viability, T/C [7]: 44.1%
- viability, T/C [8]: 22.9%
- viability, T/C [9]: 23.9%
- viability, T/C [10]: 21.6%
- viability, T/C [11]: 26.1%
- viability, T/C [12]: 27.9%
- viability, T/C [13]: 47.7%
- viability, T/C [14]: 24.4%
- viability, T/C [15]: 24.9%
- viability, T/C [16]: 31.5%
- viability, T/C [17]: 33.7%
- viability, T/C [18]: 33.9%
- viability, T/C [19]: 38.1%
- viability, T/C [20]: 26.6%
- viability, T/C [21]: 24.6%
- viability, T/C [22]: 32.1%
- viability, T/C [23]: 35.2%
- viability, T/C [24]: 31.4%
- viability, T/C [25]: 37.8%
- viability, T/C [26]: 23.8%
- viability, T/C [27]: 29.8%
- viability, T/C [28]: 25.2%
- viability, T/C [29]: 28.4%
- viability, T/C [30]: 30.4%
- viability, T/C [31]: 25.5%
- viability, T/C [32]: 17%
- viability, T/C [33]: 23%
- viability, T/C [34]: 24.1%
- viability, T/C [35]: 35.6%
- viability, T/C [36]: 18.4%

- pIC50 (second compound 0.0316 µM): 5.64
- pIC50 (second compound 0.1 µM): 5.83
- pIC50 (second compound 0.316 µM): 6.41
- pIC50 (second compound 1 µM): 7.46
- pIC50 (second compound 3.16 µM): > 7.50
- pIC50 (second compound 10 µM): > 7.50
SMILES: CCCS(=O)(=O)Nc1ccc(F)c(C(=O)c2c[nH]c3ncc(-c4ccc(Cl)cc4)cc23)c1F + Cc1cnc(CNC(=O)c2c(=O)c3ccc(N4CCCN(C)CC4)nc3n3c2sc2ccccc23)cn1
- viability, T/C [1]: 89.5%
- viability, T/C [2]: 53.1%
- viability, T/C [3]: 72%
- viability, T/C [4]: 52.7%
- viability, T/C [5]: 54.9%
- viability, T/C [6]: 11.8%
- viability, T/C [7]: 77.5%
- viability, T/C [8]: 63.9%
- viability, T/C [9]: 56.6%
- viability, T/C [10]: 55.7%
- viability, T/C [11]: 45.4%
- viability, T/C [12]: 11.6%
- viability, T/C [13]: 64.5%
- viability, T/C [14]: 57%
- viability, T/C [15]: 46.9%
- viability, T/C [16]: 39.5%
- viability, T/C [17]: 41.4%
- viability, T/C [18]: 11.3%
- viability, T/C [19]: 52.6%
- viability, T/C [20]: 44.6%
- viability, T/C [21]: 38.3%
- viability, T/C [22]: 30.3%
- viability, T/C [23]: 34.4%
- viability, T/C [24]: 9.31%
- viability, T/C [25]: 39.5%
- viability, T/C [26]: 29.4%
- viability, T/C [27]: 28.8%
- viability, T/C [28]: 25.9%
- viability, T/C [29]: 30.4%
- viability, T/C [30]: 0.11%
- viability, T/C [31]: 31.3%
- viability, T/C [32]: 31.3%
- viability, T/C [33]: 22.9%
- viability, T/C [34]: 23.3%
- viability, T/C [35]: 7.59%
- viability, T/C [36]: 0.33%
